{"source": "patent US5770617A", "about": "“Terbenzimidazoles useful as antifungal agents” (Rutgers, The State University of New Jersey, priority 1997, dated 1998)", "key": {"[1]": {"target": "T1, mammalian DNA topoisomerase I (Homo sapiens, UniProt P11387)", "T1 sequence (P11387 1-765)": "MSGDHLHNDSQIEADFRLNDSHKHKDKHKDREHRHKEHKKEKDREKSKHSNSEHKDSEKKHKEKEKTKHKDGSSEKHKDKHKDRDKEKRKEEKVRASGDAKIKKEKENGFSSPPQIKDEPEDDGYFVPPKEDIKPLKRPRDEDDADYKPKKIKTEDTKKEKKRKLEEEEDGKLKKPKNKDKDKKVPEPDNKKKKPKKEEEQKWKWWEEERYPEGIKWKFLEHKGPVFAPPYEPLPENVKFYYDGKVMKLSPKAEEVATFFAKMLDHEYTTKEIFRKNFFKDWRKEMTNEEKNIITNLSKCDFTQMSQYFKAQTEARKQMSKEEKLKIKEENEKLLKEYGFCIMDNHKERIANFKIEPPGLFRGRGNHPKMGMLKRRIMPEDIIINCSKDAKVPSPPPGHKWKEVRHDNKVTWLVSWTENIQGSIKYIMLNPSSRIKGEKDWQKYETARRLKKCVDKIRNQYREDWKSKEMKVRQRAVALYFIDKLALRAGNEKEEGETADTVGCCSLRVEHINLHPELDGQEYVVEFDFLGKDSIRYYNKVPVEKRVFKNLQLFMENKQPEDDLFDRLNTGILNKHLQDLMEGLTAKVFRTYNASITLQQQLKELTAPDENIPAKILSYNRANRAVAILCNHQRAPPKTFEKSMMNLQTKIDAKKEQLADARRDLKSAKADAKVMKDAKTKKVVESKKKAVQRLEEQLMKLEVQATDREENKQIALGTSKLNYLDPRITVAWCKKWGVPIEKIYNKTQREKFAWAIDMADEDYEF", "details": "cited from earlier work"}, "[2]": {"test_system": "yeast cells expressing nonfunctional yeast topoisomerase I", "experiment": "Yeast cytotoxicity assay, nonfunctional yeast topoisomerase I", "type": "cell-based, S. cerevisiae", "description": "(§1) The topoisomerase I-specific in vivo cytotoxicity assay was adapted from A. M. Knab et al., J. Biol. Chem., 268, 22322 (1993). In this system, various topoisomerase I genes or cDNAs cloned into the single-copy yeast plasmid vector (YCpGAL1; Knab et al., cited above) are expressed under the control of the GAL1 promoter in the JN2-134 strain of S. cerevisiae (MAT, rad52::Leu2, trp1, ade2-1, his7, ura3-52, ise1, top1-1, and leu2; M. A. Bjornsti et al., Cancer Res., 49, 6318 (1989)). The topoisomerase I gene or cDNA constructs in the vector are, respectively, the wild-type yeast topoisomerase I gene (YCpGAL-ScTOP1; need cite (1989)), a nonfunctional topoisomerase I gene where the active site tyrosine-727 is mutated to phenylalanine (YCPGAL1-Sctop1Y727; A. M. Knab et al., J. Biol. Chem., 268, 22322 (1993)), and the wild-type human topoisomerase I cDNA (YCp-GAL-hTOP1; M. A. Bjornsti et al., Cancer Res., 49, 6318 (1989)).\n(§2) To qualitatively test the cytotoxicity and the topoisomerase I specificity of the drugs, yeast cells containing the specified plasmid were grown in dropout medium supplemented with uracil, 2% galactose, and the drug being tested."}, "[3]": {"test_system": "yeast cells expressing yeast topoisomerase I", "experiment": "Yeast cytotoxicity assay, yeast topoisomerase I", "type": "cell-based, S. cerevisiae", "description": "as §1, §2"}, "[4]": {"target": "T2, Aspergillus topoisomerase I (Aspergillus nidulans, UniProt Q5BGS7)", "T2 construct": "about 105 kDa by phosphate transfer", "T2 sequence (Q5BGS7 1-871)": "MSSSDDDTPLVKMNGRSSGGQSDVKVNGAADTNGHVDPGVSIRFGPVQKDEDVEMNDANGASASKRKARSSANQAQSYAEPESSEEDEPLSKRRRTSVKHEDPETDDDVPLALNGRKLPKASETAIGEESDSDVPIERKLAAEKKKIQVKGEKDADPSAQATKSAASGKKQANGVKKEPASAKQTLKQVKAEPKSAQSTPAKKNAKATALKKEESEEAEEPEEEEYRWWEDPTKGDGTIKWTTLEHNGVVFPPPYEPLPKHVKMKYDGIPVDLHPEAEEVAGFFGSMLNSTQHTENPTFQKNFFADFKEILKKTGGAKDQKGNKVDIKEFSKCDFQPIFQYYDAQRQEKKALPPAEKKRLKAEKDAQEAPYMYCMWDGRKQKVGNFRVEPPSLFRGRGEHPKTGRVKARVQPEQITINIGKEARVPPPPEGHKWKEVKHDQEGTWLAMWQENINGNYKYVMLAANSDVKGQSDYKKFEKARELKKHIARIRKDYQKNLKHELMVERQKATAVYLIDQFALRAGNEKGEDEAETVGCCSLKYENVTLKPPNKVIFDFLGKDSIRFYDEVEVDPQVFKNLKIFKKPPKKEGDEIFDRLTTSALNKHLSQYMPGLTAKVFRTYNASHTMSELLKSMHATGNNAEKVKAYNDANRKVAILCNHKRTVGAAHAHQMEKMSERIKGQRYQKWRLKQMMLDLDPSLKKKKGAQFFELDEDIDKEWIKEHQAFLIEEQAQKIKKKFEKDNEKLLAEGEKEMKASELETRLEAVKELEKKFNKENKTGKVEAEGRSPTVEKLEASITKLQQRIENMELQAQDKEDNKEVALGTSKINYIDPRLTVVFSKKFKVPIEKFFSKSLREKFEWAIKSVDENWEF", "experiment": "Topoisomerase I cleavage assay, Aspergillus enzyme", "type": "biochemical", "details": "DNA cleavage assay", "protocol": "Two liters of YG medium (0.5% yeast extract and 2% glucose) were inoculated with approximately 5×10^8 conidia/ml. After 16 hours of growth at 37° C., the mycelia were collected, washed with Buffer I (50 mM Tris-HCl, pH 7.7, 1 mM EDTA, 1 mM EGTA, 10% glycerol, 1 mM phenylmethylsulfonyl fluoride and 1 mM 2-mercaptoethanol), and quickly chilled in liquid nitrogen. The frozen mycelia (approximately 20 grams) were ground to powder and resuspended in 300 ml of Buffer I. The lysate was centrifuged at 10K rpm in a Sorval HB3 Rotor for 15 minutes to remove cell debris. The supernatant was made 6% in polyethylene glycol (v/v) and 1M NaCl. After one hour on ice with gentle stirring, the solution was centrifuged at 14K rpm in a Sorvall Rotor for 30 minutes to remove nucleic acids.\nSubsequent steps in purification were the same as described previously for purification of recombinant human DNA topoisomerase I (B. Gatto et al., Cancer Res., 56, 2795 (1996)). Briefly, the supernatant was chromatographed directly onto a hydroxyapatite Bio-gel HTP (BioRad Laboratories, Richmond, Calif.) column. Fractions containing relaxation activity were pooled, diluted and then loaded onto a BioRex70 column (BioRad Laboratories, Richmond, Calif.). The column was developed with a linear gradient from 0.2 to 1M KCl. The peak fractions were pooled and dialyzed overnight at 4° C. against 30 mM potassium phosphate, 50% glycerol (v/v), 0.5 mM EDTA, and 1 mM DTT. Recombinant human topoisomerase I was purified from Escherichia coli BL21 (DE3) harboring PET1B as described previously (Gatto et al., Cancer Res., 56, 2795 (1996)).\nDNA topoisomerase I cleavage assays were performed as described by Y.-H. Hsiang et al., J. Biol. Chem., 260, 14873 (1985). YEpG DNA was linearized with BamHI and then 3 '-end-labeled with Klenow polymerase and α[-^32 P]dCTP. Following phenol extraction and ethanol precipitation, the labeled DNA was resuspended in 10 mM Tris, pH 8.0, and 1 mM EDTA. The DNA cleavage assay was done in a reaction mixture (20 μl) containing 40 mM Tris-HCl, pH 7.8, 100 mM KCl, 10 mM MgCl2, 0.5 mM dithiothreitol, 0.5 mM EDTA, 30 μg/ml bovine serum albumin, 20 ng of labeled YEpG DNA, and […] of Aspergillus or human topoisomerase I diluted to various extents. Following incubation at 23° C. for 15 minutes, the reactions were terminated by the addition of SDS (final concentration 1%) and proteinase K (final concentration 200 μg/ml). Proteinase K treatment continued at 37° C. for another 1 hour. The terminated reactions were either alkali-denatured and then loaded (alkaline loading) or loaded directedly in neutral loading buffer (neutral loading) onto a 1% agarose gel in neutral TPE electrophoresis solution. Gel drying and autoradiography were performed as described by Hsiang et al., cited above."}, "[5]": {"test_system": "yeast cells expressing human topoisomerase I", "experiment": "Yeast cytotoxicity assay, human topoisomerase I", "type": "cell-based, S. cerevisiae", "description": "as §1, §2"}}}
{"smiles": "COc1ccc(-c2nc3ccc([N+](=O)[O-])cc3[nH]2)cc1", "note": "[QS/II/9]", "values": [{"measurement": "inhibition (poisoning) of mammalian DNA topoisomerase I, previous studies", "setting": "[1]", "value": "inhibitors (poisons)"}, {"measurement": "cytotoxicity to yeast cells expressing nonfunctional yeast topoisomerase I", "setting": "[2]", "value": "not cytotoxic"}, {"measurement": "cytotoxicity to yeast cells expressing functional yeast topoisomerase I", "setting": "[3]", "value": "not cytotoxic"}, {"measurement": "inhibition (poisoning) of Aspergillus topoisomerase I, in words", "setting": "[4]", "value": "None of the mono-benzimidazoles, including QS/II/50, QS/II/51, QS/II/59A, an QS/II/9, exhibited any inhibitory effect"}, {"measurement": "cytotoxicity to yeast cells expressing human topoisomerase I", "setting": "[5]", "value": "highly cytotoxic"}]}
